Results reported in patent US9981925B2, “Substituted benzo[d][1,2,3]triazines as p70S6K inhibitors” (Merck Patent GmbH, priority 2012, dated 2018).

How the values were obtained:
p70S6K (T412E mutant) = p70S6K (T412E mutant) (Homo sapiens (Human), UniProt P23443, T412E); test: p70S6K enzyme assay; type: biochemical; conditions: 24 μM ATP, 90 min at 25° C., Caliper mobility shift
Description: p70S6K inhibitor compounds were diluted and plated in 96 well plates. A reaction mixture including the following components were then added to the compound plate to initiate the enzyme reaction: p70S6K (3 nM, T412E mutant, Millipore) was mixed with 24 μM ATP in an assay buffer containing 100 mM Hepes (pH 7.5), 5 mM MgCl2, 1 mM DTT, 0.015% Brij and 1 μM of the substrate peptide FITC-AHA-[…]-OH (derived from the S6 ribosomal protein sequence, FITC=fluorescein isothiocyanate, AHA=6-aminohexanoic acid). The reaction was incubated for 90 min at 25° C., before the addition of 10 mM EDTA to stop the reaction. The proportion of substrate and product (phosphorylated) peptide was analyzed on a Caliper Life Sciences Lab Chip 3000, using a pressure of −1.4 psi, and upstream and downstream voltages of −3000 and −700, respectively. Product peaks were resolved before substrate peaks on the resulting chromatograms. To assess the inhibitory potential of the compounds, IC50 values were determined, as shown above.

His-AKT (Full Length) = His-AKT (Full Length) (Homo sapiens (Human), UniProt P31749); test: AKT/PKB kinase assay; type: biochemical; conditions: 160 μM ATP, 90 min at 25° C., Caliper mobility shift
Sequence of His-AKT (Full Length) (P31749 whole entry): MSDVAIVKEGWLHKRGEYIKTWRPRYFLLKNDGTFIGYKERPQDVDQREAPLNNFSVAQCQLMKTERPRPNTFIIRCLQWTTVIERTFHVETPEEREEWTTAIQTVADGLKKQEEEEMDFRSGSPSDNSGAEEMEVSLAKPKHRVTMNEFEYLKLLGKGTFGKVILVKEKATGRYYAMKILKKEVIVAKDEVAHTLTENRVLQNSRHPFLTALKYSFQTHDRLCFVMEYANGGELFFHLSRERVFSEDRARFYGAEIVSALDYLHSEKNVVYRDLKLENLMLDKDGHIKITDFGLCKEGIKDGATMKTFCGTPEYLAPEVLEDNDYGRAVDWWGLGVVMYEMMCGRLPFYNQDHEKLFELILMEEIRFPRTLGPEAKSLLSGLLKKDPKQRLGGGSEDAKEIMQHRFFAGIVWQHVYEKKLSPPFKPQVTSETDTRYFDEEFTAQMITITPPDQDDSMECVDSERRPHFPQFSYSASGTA
Description: In order to measure AKT inhibition in the Caliper Life Sciences LC3000, a TTP Mosquito liquid handling instrument was used to place 125 nl of the appropriate concentration of inhibitor in 100% DMSO (for a dose response curve calculation) into each well of a 384-well plate. To this reaction, the following components were added to a final volume of 12.5 μl: • 0.1 ng/μl His-AKT (Full Length) (Invitrogen, Part # P2999, Lot #641228C); • 160 μM ATP (Fluka, 02055); • 1 mM DTT (Sigma, D0632); • 1 mM MgCl2 (Sigma, M1028); • 1 μM substrate peptide (sequence FITC-AHA-[…]-NH2), synthesized by • Tufts Peptide Synthesis service; • 100 mM HEPES pH 7.5 (Calbiochem, 391338); and • 0.015% Brij-35 (Sigma, B4184).
The reaction was incubated for 90 min at 25° C., and then stopped by the addition of 70 μl of Stop buffer (100 mM HEPES pH 7.5, 0.015% Brij-35, 10 mM EDTA (Sigma, E7889)). The plate was read on a Caliper LC 3000 in an Off-Chip mobility shift assay format, using the following parameters for a 12-sipper chip: screening pressure −2.3 psi, upstream voltage −500, and downstream voltage −3000. These conditions cause unphosphorylated substrate and phosphorylated product peptide to resolve as separate peaks allowing direct measurement of percentage of conversion of substrate to product. The percent conversion was plotted against concentration of inhibitor to produce a sigmoidal dose response curve, from which an IC50 was calculated.

Sequence of p70S6K (T412E mutant) (P23443 whole entry T412E): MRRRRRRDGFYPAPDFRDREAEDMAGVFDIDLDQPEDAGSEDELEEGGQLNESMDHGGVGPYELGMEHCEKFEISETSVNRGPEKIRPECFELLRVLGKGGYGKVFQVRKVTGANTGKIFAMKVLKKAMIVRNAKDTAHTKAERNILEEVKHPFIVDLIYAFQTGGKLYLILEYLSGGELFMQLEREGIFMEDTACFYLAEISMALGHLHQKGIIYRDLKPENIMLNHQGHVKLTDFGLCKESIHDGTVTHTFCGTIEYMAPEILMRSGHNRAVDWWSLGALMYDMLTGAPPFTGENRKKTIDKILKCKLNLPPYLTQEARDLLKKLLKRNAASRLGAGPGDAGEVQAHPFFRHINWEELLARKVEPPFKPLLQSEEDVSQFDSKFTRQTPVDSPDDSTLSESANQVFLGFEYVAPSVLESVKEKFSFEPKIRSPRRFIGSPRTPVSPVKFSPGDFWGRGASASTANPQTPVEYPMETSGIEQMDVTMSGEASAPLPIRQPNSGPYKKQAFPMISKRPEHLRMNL

IC50 (p70S6K (T412E mutant)) [nM] | IC50 (His-AKT (Full Length)) [nM] | Structure (SMILES)
25 to 100 | 101 to 500 | CCNC[C@@H](Nc1ncnc2c(C(N)=O)ccnc12)c1cc(F)c(F)cc1F [Compound 58, 4-[(S)-2-Ethylamino-1-(2,4,5-trifluoro-phenyl)-ethylamino]-pyrido[3,2-d]pyrimidine-8-carboxylic Acid Amide]
< 25 | < 25 | CCNC[C@@H](Nc1ncnc2c(C(N)=O)ccnc12)c1ccc(C(F)(F)F)c(C(F)(F)F)c1 [Compound 59, 4-[(S)-1-(3,4-Bis-trifluoromethyl-phenyl)-2-ethylamino-ethylamino]-pyrido[3,2-d]pyrimidine-8-carboxylic Acid Amide]
25 to 100 | 25 to 100 | CNC[C@@H](Nc1ncnc2c(C(N)=O)ccnc12)c1cc(F)c(F)cc1F [Compound 60, 4-[(S)-2-Methylamino-1-(2,4,5-trifluoro-phenyl)-ethylamino]-pyrido[3,2-d]pyrimidine-8-carboxylic Acid Amide]
< 25 | < 25 | NC(=O)c1ccnc2c(N[C@H](CN3CCC3)c3ccc(C(F)(F)F)c(C(F)(F)F)c3)ncnc12 [Compound 63, 4-[(S)-2-Azetidin-1-yl-1-(3,4-bis-trifluoromethyl-phenyl)-ethylamino]-pyrido[3,2-d]pyrimidine-8-carboxylic Acid Amide]
< 25 | < 25 | CNC[C@@H](Nc1ncnc2c(C(N)=O)ccnc12)c1cccc(Cl)c1 [Compound 64, 4-[(S)-1-(3-Chloro-phenyl)-2-methylamino-ethylamino]-pyrido[3,2-d]pyrimidine-8-carboxylic Acid Amide]
< 25 | < 25 | CNC[C@@H](Nc1ncnc2c(C(N)=O)ccnc12)c1cccc(Br)c1 [Compound 65, 4-[(S)-1-(3-Bromo-phenyl)-2-methylamino-ethylamino]-pyrido[3,2-d]pyrimidine-8-carboxylic Acid Amide]
< 25 | < 25 | CNC[C@@H](Nc1ncnc2c(C(N)=O)ccnc12)c1cccc(F)c1 [Compound 66, 4-[(S)-1-(3-Fluoro-phenyl)-2-methylamino-ethylamino]-pyrido[3,2-d]pyrimidine-8-carboxylic Acid Amide]
< 25 | < 25 | CNC[C@@H](Nc1ncnc2c(C(N)=O)ccnc12)c1ccc(F)c(C)c1 [Compound 67, 4-[(S)-1-(4-Fluoro-3-methyl-phenyl)-2-methylamino-ethylamino]-pyrido[3,2-d]pyrimidine-8-carboxylic Acid Amide]
< 25 | 25 to 100 | NC(=O)c1ccnc2c(N[C@H](CN3CCC3)c3cccc(F)c3)ncnc12 [Compound 68, 4-[(S)-2-Azetidin-1-yl-1-(3-fluoro-phenyl)-ethylamino]-pyrido[3,2-d]pyrimidine-8-carboxylic Acid Amide]
< 25 | 25 to 100 | NC(=O)c1ccnc2c(N[C@H](CN3CC(F)C3)c3ccc(Cl)c(C(F)(F)F)c3)ncnc12 [Compound 69, 4-[(S)-1-(4-Chloro-3-trifluoromethyl-phenyl)-2-(3-fluoro-azetidin-1-yl)-ethylamino]-pyrido[3,2-d]pyrimidine-8-carboxylic Acid Amide]
< 25 | 25 to 100 | NC(=O)c1ccnc2c(N[C@H](CN3CC(O)C3)c3ccc(Cl)c(C(F)(F)F)c3)ncnc12 [Compound 70, 4-[(S)-1-(4-Chloro-3-trifluoromethyl-phenyl)-2-(3-hydroxy-azetidin-1-yl)-ethylamino]-pyrido[3,2-d]pyrimidine-8-carboxylic Acid Amide]
< 25 | < 25 | CNC[C@@H](Nc1ncnc2c(C(N)=O)ccnc12)c1ccc(Cl)c(C(F)(F)F)c1 [Compound 72, 4-[(S)-1-(4-Chloro-3-trifluoromethyl-phenyl)-2-methylamino-ethylamino]-pyrido[3,2-d]pyrimidine-8-carboxylic Acid Amide]
< 25 | 25 to 100 | CNC[C@@H](Nc1ncnc2c(C(N)=O)ccnc12)c1ccc(OC(F)(F)F)c(Cl)c1 [Compound 74, 4-[(S)-1-(3-Chloro-4-trifluoromethoxy-phenyl)-2-methylamino-ethylamino]-pyrido[3,2-d]pyrimidine-8-carboxylamide]
< 25 | < 25 | CNC[C@@H](Nc1ncnc2c(C(N)=O)ccnc12)c1ccc(Cl)c(Cl)c1 [Compound 75, 4-[(S)-1-(3,4-Dichloro-phenyl)-2-methylamino-ethylamino]-pyrido[3,2-d]pyrimidine-8-carboxylamide]
< 25 | < 25 | CNC[C@@H](Nc1ncnc2c(C(N)=O)ccnc12)c1ccc(C)c(C(F)(F)F)c1 [Compound 76, 4-[(S)-2-Methylamino-1-(4-methyl-3-trifluoromethyl-phenyl)-ethylamino]-pyrido[3,2-d]pyrimidine-8-carboxylic Acid Amide]

Structure (SMILES) | IC50 (p70S6K (T412E mutant)) [nM] | IC50 (His-AKT (Full Length)) [nM]
NC(=O)c1ccnc2c(N[C@@H](CN3CCC3)c3ccc(Cl)c(C(F)(F)F)c3)ncnc12 [Compound 71, 4-[(R)-2-Azetidin-1-yl-1-(4-chloro-3-trifluoromethyl-phenyl)-ethylamino]-pyrido[3,2-d]pyrimidine-8-carboxylamide] | 501 to 1000 | > 1000
NC(=O)c1ccnc2c(N[C@H](CN3CCC3)c3ccc(OC(F)(F)F)c(Cl)c3)ncnc12 [Compound 73, 4-[(S)-2-Azetidin-1-yl-1-(3-chloro4-trifluoromethoxy-phenyl)-ethylamino]-pyrido[3,2-d]pyrimidine-8-carboxylamide] | < 25 | 25 to 100
